Reference: patent US9879303B2, “Chromogenic glucuronidase substrates and uses” (Glycosynth Limited, priority 2013, dated 2018)
Structures can show the parent of a compound that is named as a salt.

Tested on: E. coli expressing both β-D-glucuronidase and β-D-galactosidase
Experiment: broth media in the presence of ONPG
Type: cell-based
Settings: ONPG 1.5 g/L, broth with FAC
Procedure: The two indoxyl glucuronides used produce insoluble endpoints following hydrolysis, as does the CPS ID 3 medium. It was therefore necessary to test these two substrates on agar plates. In contrast, catechol-β-D-glucuronide (1) and DHN-β-D-glucuronide (2b) give much more soluble endpoints best suited to liquid media and were therefore tested in a broth medium. Each broth was prepared using proteose peptone (Oxoid, Basingstoke, UK) (2 g), NaCl (1 g) and FAC (100 mg) in DI water (180 mL). This mixture was autoclaved and cooled to room temperature before being dispensed into bijoux (100×1.8 mL). Catechol β-D-glucuronide CHA salt (1) or DHN-β-D-glucuronide CHA salt (2b) (60 mg) were each dissolved in water (20 mL) and filtered to sterilize before being aseptically dispensed into successive bijoux (0.2 mL) containing the broth solution. […]
Because many E. coli produce both β-D-glucuronidase and β-D-galactosidase, catechol-β-D-glucuronide (1) and DHN-β-D-glucuronide (2b) were tested as in the broth media described above but in the presence of o-nitrophenyl-β-D-galactoside (ONPG) (at a concentration of 1.5 g/L). […] With either substrate, the colour of these solutions of mixed chromogens could be very readily distinguished with the unaided eye from the yellow colour of those strains, such as E. cloacae, that produced β-D-galactosidase only. […]

O=C(O)C1OC(Oc2cc3ccccc3cc2O)C(O)C(O)C1O [Compound 2b, DHN-β-D-Glucuronide CHA Salt]
colour of solutions in the presence of ONPG: purple-brown solutions

O=C(O)C1OC(Oc2ccccc2O)C(O)C(O)C1O [Compound 1, Catechol β-D-Glucuronide CHA Salt]
colour of solutions in the presence of ONPG: greyish-black solutions
